How the values were obtained:
Format in all cases: cell-based, human
hCMEC/D3 barrier = test: Endothelial permeability assay (Transwell, FITC-dextran leakage); settings: for LPS-induced permeability relative to control group: 24 h
Experimental: 3.1 Experimental Groups: Which were the Same as in Example 2.
A cell (5×10^4 in 200 μL ECM) was inoculated into an upper well of Transwell (0.4 μm, Corning, USA), and 200 μL of ECM was added to a lower well; the Transwell was incubated for 3 d in a 37° C. and 5% CO2 incubator until a cell confluency was 90%; a medium in the upper well was replaced with 50 μg/mL LPS or anisodamine hydrobromide (10 μg/mL or 20 μg/mL)-free fresh ECM, and a medium in the lower well was replaced with fresh ECM; 24 h later, 10 μL of fluorescein isothiocyanate (FITC)-dextran (40 kDa; Cat. 46944, Sigma-Aldrich, USA) was added to the upper well; 40 min later, 100 μL of a medium was taken from the lower well, and fluorescence values at 490 nm and 525 nm were determined; and a leakage amount of FITC-dextran was calculated to assess the permeability of an endothelial cell layer.

[1] = system: glycocalyx HS and cadherin of hCMEC/D3 cell; test: Immunofluorescence staining and confocal microscopy of HS and cadherin
Experimental: 2.1 Experimental Groups: Normal Control Group, LPS Treatment Group (50 μg/mL), Low-Concentration Administration Group (LPS 50 μg/mL+Anisodamine Hydrobromide 10 μg/mL), and High-Concentration Administration Group (LPS 50 μg/mL+Anisodamine Hydrobromide 20 μg/mL). 2.2 Immunofluorescence Staining and Confocal Microscopy
A cell was fixed and penetrated, then blocked with 2% goat serum, and labeled with a murine HS monoclonal antibody (mAb) (1:100, 10E4 epitope, AMS Biotechnology, UK), a rabbit cadherin polyclonal antibody (pAb) (1:100, A0734, Abclonal, China), an Alexa Fluor 488 goat anti-murine (1:400, A11001, Thermo Fisher) secondary antibody, and an Alexa Fluor 568 donkey anti-rabbit (1:400, A10042, Thermo Fisher) secondary antibody. The cell nucleus was labeled with DAPI. Mounting was conducted, and then the cell was detected under a confocal microscope at LSM710.

hCMEC/D3 cell [2] = test: NO production assay
Experimental: 4.1 Experimental Groups: Which were the Same as in Example 2.
A cell was pre-cooled with PBS, then ultrasonically disrupted and homogenized, and centrifuged at 16,000 g and 4° C. for 20 min, a resulting supernatant was collected, and a NO detection kit (Nanjing Jiancheng Institute of Biological Engineering A012) was used to determine the absorbance at 550 nm, thereby determining an NO level.

hCMEC/D3 cell [3] = test: CCK-8 cell proliferation assay; settings: under 50 μg/mL LPS, 24 h
Experimental: Immortalized HBMVEC hCMEC/D3 was taken from the Beijing Beina Chuanglian Biotechnology Institute (BNBIO) in China. The hCMEC/D3 endothelial cell was cultivated with an endothelial cell culture medium (ECM; cat.1001, Sciencell, USA) at 37° C. and 5% CO2. Anisodamine hydrobromide was taken from the Chengdu First Pharmaceutical Co., Ltd., Chengdu, China. Anisodamine hydrobromide was dissolved in distilled water at 20 mg/mL, then a resulting solution was filtered through a 0.22 μm filter membrane, and anisodamine hydrobromide solutions with final concentrations of 10 μg/mL, 20 μg/mL, 40 μg/mL, and 80 μg/mL each were prepared with ECM. LPS was dissolved in distilled water at 2 mg/mL, and LPS solutions with concentrations of 1 μg/mL, 10 μg/mL, 20 μg/mL, 50 μg/mL, and 100 μg/mL each were prepared with ECM. The hCMEC/D3 cell was treated with LPS and anisodamine hydrobromide.
The cell proliferation was assayed by the CCK-8 method (C0042, Beyotime, China). 2,000 cells were inoculated into a 96-well plate, cultivated for 24 h, and then treated with LPS and anisodamine hydrobromide; and before the end of the experiment, a CCK8 assay solution was added, the plate was incubated for 1 h, and then the absorbance at 450 nm was determined by a microplate reader (Labsery K3 Touch, Thermo Fisher, USA).

[4] = LPS 50 μg/mL + anisodamine hydrobromide 10 μg/mL
[5] = LPS 50 μg/mL + anisodamine hydrobromide 20 μg/mL
[6] = LPS 50 μg/mL + anisodamine hydrobromide 10 or 20 μg/mL

Structure (SMILES): Br.CN1[C@H]2C[C@H](OC(=O)[C@H](CO)c3ccccc3)C[C@@H]1[C@@H](O)C2 [anisodamine hydrobromide, Anisodamine hydrobromide]
- LPS-induced permeability relative to control group (hCMEC/D3 barrier; [4]): 2.7 times
- LPS-induced permeability relative to control group (hCMEC/D3 barrier; [5]): 2.6 times
- permeability, anisodamine hydrobromide group vs control group (hCMEC/D3 barrier; [6]): no significant difference
- loss of cadherin and HS [1, 4]: inhibit the loss of cadherin and HS
- loss of cadherin and HS [1, 5]: inhibit the loss of cadherin and HS
- integrity and width of a cell junction [1, 6]: restored the integrity and width of a cell junction
- cadherin level and HS coverage rate ([1]; compared with the control group and the 10 μg/mL anisodamine hydrobromide group (group not named, apparently 20 μg/mL)): increased slightly, but not significantly
- LPS-induced NO production relative to control group (hCMEC/D3 cell [2]; [4]): 1.2 times
- LPS-induced NO level (hCMEC/D3 cell [2]; LPS 50 μg/mL + anisodamine hydrobromide 10 μg/mL (second mention)): significantly reduced the LPS-induced NO level
- cell proliferation (hCMEC/D3 cell [3]; anisodamine hydrobromide 20 μg/mL): significantly increased the cell proliferation
- cell proliferation (hCMEC/D3 cell [3]; anisodamine hydrobromide 20 μg/mL, listed as anisodamine): significantly improve the proliferation
- cell proliferation (hCMEC/D3 cell [3]; anisodamine hydrobromide 80 μg/mL): significantly down-regulated the cell proliferation
- cell proliferation (hCMEC/D3 cell [3]; anisodamine hydrobromide 80 μg/mL, listed as anisodamine): significantly inhibit the proliferation
